From patent publication US20260027068A1, “METHODS OF ADM[…]-KETAMINE” (Perception Neuroscience, Inc., priority 2022, published 2026)

System: subjects with TRD
Test: Adverse events (TEAEs, SAEs) in the TRD study
Format: in vivo, human
Conditions: for Number of subjects with TEAE, Mild / Number of subjects with TEAE, Moderate / Number of subjects with TEAE, Severe / Percent of subjects with TEAE, Mild / Percent of subjects with TEAE, Moderate / Percent of subjects with TEAE, Severe: maximum severity
Text: The definitions of an AE and SAE can be found in Section F. AEs were reported by the subject (or, when appropriate, by a caregiver, surrogate, or the subject's legally authorized representative). The Investigator and any designees were responsible for detecting, documenting, and recording events that meet the definition of an AE or SAE and remained responsible for following up AEs that were serious, considered related to the study treatment or study procedures, or that caused the subject to discontinue from the study.
All AEs were collected from the signing of the ICF until the second follow-up visit (Day 15) at the time points specified in the Schedule of Activities (Section C). Medical occurrences that began before the start of study treatment but after obtaining informed consent were recorded on the Medical History/Current Medical Conditions section of the CRF, not the AE section. All SAEs were recorded and reported to the Sponsor or designee within 24 hours as indicated in Section F. The Investigator submitted any updated SAE data to the Sponsor or designee within 24 hours of it being available. Investigators were not obligated to actively seek AE or SAE information after the conclusion of study participation. However, if the Investigator learns of any SAE, including a death, at any time after a subject has been discharged from the study, and he/she considers the event to be reasonably related to the study treatment or study participation, the Investigator must promptly notify the Sponsor or designee. The method of recording, evaluating, and assessing the causality of AEs and SAEs and the procedures for completing and transmitting SAE reports are provided in Section F.
An AE is any untoward medical occurrence in a patient or subject, temporally associated with the use of study treatment, whether or not considered related to the study treatment. An AE can therefore be any unfavorable and unintended sign (including an abnormal laboratory finding), symptom, or disease (new or exacerbated) temporally associated with the use of study treatment.
If an event is not an AE per the definition above, then it cannot be an SAE even if serious conditions are met (e.g., hospitalization for signs/symptoms of the disease under study). A Serious Adverse Event (SAE) is defined as any untoward medical occurrence that, at any dose: a) results in death; b) is life-threatening; c) requires inpatient hospitalization or prolongation of existing hospitalization; d) results in persistent disability/incapacity; or e) is a congenital anomaly/birth defect. The term “life-threatening” in the definition of “serious” refers to an event in which the subject was at risk of death at the time of the event. […] In general, hospitalization signifies that the subject has been detained (usually involving at least an overnight stay) at the hospital or emergency ward for observation and/or treatment that would not have been appropriate in the physician's office or outpatient setting. Complications that occur during hospitalization are AEs. If a complication prolongs hospitalization or fulfills any other serious criteria, the event is serious. When in doubt as to whether “hospitalization” occurred or was necessary, the AE should be considered serious. […] The term disability means a substantial disruption of a person's ability to conduct normal life functions.
(MedDRA; Version 23.0 or higher). Treatment-emergent adverse events (TEAEs) are AEs with onset or worsening after the start of study treatment. The AE summaries will be primarily based on TEAEs. The number and percentage of subjects with TEAEs will be summarized by treatment group, system organ class, and preferred term for all TEAEs, treatment-related TEAEs, SAEs, serious TEAEs, severe TEAEs, TEAEs of special interest, and all TEAEs leading to study drug discontinuation. All TEAEs will be further summarized by maximum severity and causality. The TEAEs of special interest will be identified in the SAP. […]

CN[C@@]1(c2ccccc2Cl)CCCCC1=O.Cl [R(−)-ketamine, (2R)-2-(2-chlorophenyl)-2-(methylamino)cyclohexan-1-one]
Number of subjects with Any adverse events (AE) (30 mg (n = 33)): 11
Number of subjects with Serious TEAEs resulting in treatment discontinuation (30 mg (n = 33)): 0
Number of subjects with TEAE with outcome of death (30 mg (n = 33)): 0
Number of subjects with TEAEs of COVID-19 (30 mg (n = 33)): 0
Number of subjects with TEAEs resulting in discontinuation from study (30 mg (n = 33)): 0
Number of subjects with TEAEs resulting in treatment discontinuation (30 mg (n = 33)): 0
Number of subjects with Treatment-emergent SAE, Mild (30 mg (n = 33)): 0
Number of subjects with Treatment-emergent SAE, Moderate (30 mg (n = 33)): 0
Number of subjects with Treatment-emergent SAE, Severe (30 mg (n = 33)): 0
Number of subjects with Treatment-emergent adverse events (TEAE) (30 mg (n = 33)): 11
Number of subjects with Treatment-emergent serious adverse events (SAE) (30 mg (n = 33)): 0
Number of subjects with Treatment-related TEAEs (30 mg (n = 33)): 10
Number of subjects with Treatment-related and severe TEAEs (30 mg (n = 33)): 0
Number of subjects with Treatment-related treatment-emergent SAEs (30 mg (n = 33)): 0
Percent of subjects with Any adverse events (AE) (30 mg (n = 33)): (33) %
Percent of subjects with Serious TEAEs resulting in treatment discontinuation (30 mg (n = 33)): (0) %
Percent of subjects with TEAE with outcome of death (30 mg (n = 33)): (0) %
Percent of subjects with TEAEs of COVID-19 (30 mg (n = 33)): (0) %
Percent of subjects with TEAEs resulting in discontinuation from study (30 mg (n = 33)): (0) %
Percent of subjects with TEAEs resulting in treatment discontinuation (30 mg (n = 33)): (0) %
Percent of subjects with Treatment-emergent SAE, Mild (30 mg (n = 33)): (0) %
Percent of subjects with Treatment-emergent SAE, Moderate (30 mg (n = 33)): (0) %
Percent of subjects with Treatment-emergent SAE, Severe (30 mg (n = 33)): (0) %
Percent of subjects with Treatment-emergent adverse events (TEAE) (30 mg (n = 33)): (33) %
Percent of subjects with Treatment-emergent serious adverse events (SAE) (30 mg (n = 33)): (0) %
Percent of subjects with Treatment-related TEAEs (30 mg (n = 33)): (30) %
Percent of subjects with Treatment-related and severe TEAEs (30 mg (n = 33)): (0) %
Percent of subjects with Treatment-related treatment-emergent SAEs (30 mg (n = 33)): (0) %
Number of subjects with TEAE, Mild (30 mg (n = 33)): 7
Number of subjects with TEAE, Moderate (30 mg (n = 33)): 4
Number of subjects with TEAE, Severe (30 mg (n = 33)): 0
Percent of subjects with TEAE, Mild (30 mg (n = 33)): (21) %
Percent of subjects with TEAE, Moderate (30 mg (n = 33)): (12) %
Percent of subjects with TEAE, Severe (30 mg (n = 33)): (0) %
Serious adverse events (SAEs) (30 mg or 60 mg single IV infusion): no serious adverse events
Number of subjects with Any adverse events (AE) (60 mg (n = 35)): 19
Number of subjects with Serious TEAEs resulting in treatment discontinuation (60 mg (n = 35)): 0
Number of subjects with TEAE with outcome of death (60 mg (n = 35)): 0
Number of subjects with TEAEs of COVID-19 (60 mg (n = 35)): 0
Number of subjects with TEAEs resulting in discontinuation from study (60 mg (n = 35)): 0
Number of subjects with TEAEs resulting in treatment discontinuation (60 mg (n = 35)): 0
Number of subjects with Treatment-emergent SAE, Mild (60 mg (n = 35)): 0
Number of subjects with Treatment-emergent SAE, Moderate (60 mg (n = 35)): 0
Number of subjects with Treatment-emergent SAE, Severe (60 mg (n = 35)): 0
Number of subjects with Treatment-emergent adverse events (TEAE) (60 mg (n = 35)): 18
Number of subjects with Treatment-emergent serious adverse events (SAE) (60 mg (n = 35)): 0
Number of subjects with Treatment-related TEAEs (60 mg (n = 35)): 16
Number of subjects with Treatment-related and severe TEAEs (60 mg (n = 35)): 2
Number of subjects with Treatment-related treatment-emergent SAEs (60 mg (n = 35)): 0
Percent of subjects with Any adverse events (AE) (60 mg (n = 35)): (54) %
Percent of subjects with Serious TEAEs resulting in treatment discontinuation (60 mg (n = 35)): (0) %
Percent of subjects with TEAE with outcome of death (60 mg (n = 35)): (0) %
Percent of subjects with TEAEs of COVID-19 (60 mg (n = 35)): (0) %
Percent of subjects with TEAEs resulting in discontinuation from study (60 mg (n = 35)): (0) %
Percent of subjects with TEAEs resulting in treatment discontinuation (60 mg (n = 35)): (0) %
Percent of subjects with Treatment-emergent SAE, Mild (60 mg (n = 35)): (0) %
Percent of subjects with Treatment-emergent SAE, Moderate (60 mg (n = 35)): (0) %
Percent of subjects with Treatment-emergent SAE, Severe (60 mg (n = 35)): (0) %
Percent of subjects with Treatment-emergent adverse events (TEAE) (60 mg (n = 35)): (51) %
Percent of subjects with Treatment-emergent serious adverse events (SAE) (60 mg (n = 35)): (0) %
Percent of subjects with Treatment-related TEAEs (60 mg (n = 35)): (46) %
Percent of subjects with Treatment-related and severe TEAEs (60 mg (n = 35)): (6) %
Percent of subjects with Treatment-related treatment-emergent SAEs (60 mg (n = 35)): (0) %
Number of subjects with TEAE, Mild (60 mg (n = 35)): 9
Number of subjects with TEAE, Moderate (60 mg (n = 35)): 7
Number of subjects with TEAE, Severe (60 mg (n = 35)): 2
Percent of subjects with TEAE, Mild (60 mg (n = 35)): (26) %
Percent of subjects with TEAE, Moderate (60 mg (n = 35)): (20) %
Percent of subjects with TEAE, Severe (60 mg (n = 35)): (6) %
